Patent publication US4007201A, “Novel pyrazole derivatives” (Kyorin Pharmaceutical Co. Ltd., priority 1975, dated 1977)
Like-named read-outs stand apart in the source and are kept apart here.

Key:
Type in all cases: in vivo, male Sprague Dawley rats
[1] = test system: serum FFA level in non-diabetic rats; assay: Serum free fatty acids (FFA) level in non-diabetic rats at 90 minutes; conditions: 100 mg/kg oral
Procedure: (§1) These new compounds of the present invention are very useful as anti-diabetic agents, which is supported from the following pharmacological studies. The animals used for the pharmacological studies were male Sprague Dawley rats exept otherwise noted. 1. Hypoglycemic activity in non-diabetic rats (screening test)
The rats were fasted for 16-18 hours, and those weighing 130-160g were used. The compound 4 suspended in 1% CMC was orally administered to the fasted rats, and at 90 minutes after administration blood was drawn from the […] vena cava under anesthesia with sodium pentobarbital. The blood glucose level was determined by the method of Momose, and the serum FFA level was determined by the method of Itaya and Ui as described in J. Lipid Res., 6, 16 (1965), respectively.

[2] = test system: blood glucose level in alloxan diabetic rats; assay: Blood glucose level in alloxan diabetic rats loaded with much quantity of glucose
Procedure: as §1
Respective dose of the compound 4 (12.5 and 100 mg/kg) together with 2g/kg of glucose was orally administered to the alloxan diabetic rats.

[3] = test system: blood glucose level in non-diabetic rats; assay: Hypoglycemic activity in non-diabetic rats (screening test); conditions: Rattus norvegicus, 100 mg/kg oral, fasted, glucose s.c.
Procedure: as §1
(§2) The rats were fasted for 16 - 18 hours prior to the experiment and those weighing 140 - 160g were used. Glucose solution (100 mg/0.5ml/150g body weight) was subcutaneously injected on the fasted rats. Each of the present compounds was suspended in 1% carboxymethyl cellulose (CMC), and about 0.5 ml of the suspension (corresponding to 100 mg/kg of the compound per body weight) was orally administered. Blood samples were taken from the tail vein of the rats at 2 and 5 hours after the administration, and the blood glucose level in each sample (0.1 ml) was determined by the micro method of Momose as described in SOGO-RINSHO 11, 120 (1962).
3,5-Dinitrophthalic acid is reduced with glucose to stable orange-red azo-compound via red hydroxyaminophthalic acid in basic media.
To 0.5ml of water was added 0.1ml of blood and shaken to hemolyze, and to which was added 1.7ml of 0.06N barium hydroxide solution. To the resulting dark-brown solution was added 1.7ml of zinc sulfate solution (1g/dl), and which was shaken thoroughly and allowed to stand for 2-3min followed by centrifugation.
One ml of 3,5-dinitrophthalic acid solution (1.5g of monopyridinium-3,5-dinitrophthalate in 500ml of water) and 1 ml of sodium carbonatesodium hyposulfite solution (125-25g/500ml) were added to 2ml of spernatant solution. The solution was heated at 100° C for 10 min. After cooling with running water for 3 min, water was added to make 20ml.
To 2ml of water were added 3,5-dinitrophthalic acid solution and an alkaline solution, and the solution was treated as mentioned above.
As the absorbance of reference at 450nm was adjusted to 0, the absorbance of sample corresponded to blood glucose level.

[4] = test system: blood glucose level in streptozotocin-diabetic rats; assay: Hypoglycemic effect in streptozotocin-diabetic rats; conditions: for Blood glucose level Before: before (baseline); for Hypoglycemic effect in streptozotocin-diabetic rats (in words): oral
Procedure: The animals used for the pharmacological studies were male Sprague Dawley rats exept otherwise noted. 1. […]
The rats were fasted for 16 hours, and then streptozotocin was intravenously injected in a dose of 65 mg/kg. Oral administration of the compound 4 was performed at 48 hours after the injection of streptozotocin. Blood samples were taken at 4 hours after the oral administration, and the blood glucose level in each sample was determined.

[5] = test system: liver glycogen level in rats loaded with glucose; assay: Liver glycogen level in rats loaded with glucose; conditions: oral in 40% glucose solution; 3 hours
Procedure: (§3) The animals used for the pharmacological studies were male Sprague Dawley rats exept otherwise noted. 1. Hypoglycemic activity in non-diabetic rats (screening test)
The rats were fasted for 16 - 18 hours, and then the compound 4 suspended in 40% glucose solution was orally administered (5 ml/kg of the suspension per body weight). Glycogen content in the liver was determined at 3 hours after the administration.

[6] = test system: serum FFA level in alloxan diabetic rats; assay: Serum FFA level in alloxan diabetic rats, oral administration; conditions: compound 4 at 12.5 and 100 mg/kg, 1.5 and 5 hours
Procedure: as §1
Alloxan diabetic rats were obtained as follows. Namely, 2.5% fresh solution of alloxan (50mg/kg) was injected into the tail vein of male rats, and the rats were daily injected with insulin (1-4 units/day) from the 7th day after the administration of alloxan. The alloxan diabetic rats which were survived for more than 2 months with daily injection of insulin were used. The alloxan diabetic rats were fasted for 24 hours after the last treatment with insulin, and then the compound of the present invention was orally administered. The blood glucose levels were determined by the micro method of Momose before and 2, 4 and 6 hours after the administration.
The alloxan diabetic rats which were prepared and then preserved for 6 months with insulin as described in the previous experiment were used.

[7] = test system: blood glucose level in fasted and glucose-loaded rats; assay: Relationships between doses and reducing activity of the compound 4; conditions: for Blood glucose: ± SE
Procedure: as §3, §2
The compound 4 and tolbutamide were orally administered to the fasted and glucose-loaded rats in various doses.

[8] = test system: blood glucose level in non-diabetic rats; assay: Synergistic effect on the insulin activity in non-diabetic rats; conditions: insulin 0.1 unit/kg s.c.; compound 4 25 mg/kg oral
Procedure: as §3
The blood glucose levels in the non-diabetic rats were respectively determined after a subcutaneous injection of insulin (0.1 unit/kg), after an oral administration of the compound 4 (25 mg/kg), and after simultaneous administrations of insulin and the compund 4.

[9] = test system: serum FFA level in fasted rats; assay: Time course of the serum FFA level in fasted rats (FIG. 1); conditions: 50 mg/kg oral; 0.5, 1, 2, 4 and 6 hours
Procedure: as §1
Further experiment was performed to clarify the effectiveness of the compound 4 on the serum FFA. Blood samples were taken at 0.5, 1, 2, 4 and 6 hours after an oral administration of 50 mg/kg to the fasted rats and the serum FFA levels were determined.

[10] = 2 hours, read-out: Reduction % of blood glucose from control after 2 hours
[11] = 5 hours, read-out: Reduction % of blood glucose from control after 5 hours
[12] = Rattus norvegicus, 100 mg/kg oral, 4 hours

SMILES | Serum FFA level [1] | inhibition in vivo at 100 mg/kg [3, 10] | inhibition in vivo at 100 mg/kg [3, 11] | Blood glucose level Before ([4]; 100 mg/kg oral group) | Blood glucose level 4 hours ([4]; 100 mg/kg oral, 4 hours) | inhibition at 100 mg/kg [4, 12] | Hypoglycemic effect in streptozotocin-diabetic rats (in words) ([4]; 4 hours) | Effect on the liver glycogen level [5] | Effect on serum FFA level in alloxan diabetic rats (in words) [6] | Reduction % from control ([7]; 6.75 mg/kg oral) | Blood glucose ([7]; 6.75 mg/kg oral) | Reduction % from control ([7]; 12.5 mg/kg oral) | Blood glucose ([7]; 12.5 mg/kg oral) | Reduction % from control ([7]; 25 mg/kg oral) | Blood glucose ([7]; 25 mg/kg oral) | Reduction % from control ([7]; 50 mg/kg oral) | Blood glucose ([7]; 50 mg/kg oral) | Effect of combined use with insulin on blood glucose level [8] | Effect on serum FFA level (in words, FIG. 1) [9] | also measured
Cc1cc(C)n(C(=O)CNS(=O)(=O)c2ccc(Cl)cc2)n1 [Example 4, 1-(N-p-chlorobenzenesulfonyl-glycyl)-3,5-dimethylpyrazole] | 17.4 ± 5.8 μ Eq/dl | 41.9% | 25.2% | 411.5 ± 16.9 mg % | 231.4 ± 33.3 mg % | 54.3 ± 6.4% | markedly reduced the blood glucose level | significantly reduced the liver glycogen level (p<0.001) | drastically decreased within 1.5 hours, and it was still more lowered even at 5 hours later | 24.0% | 69.2 ± 7.8 mg% | 34.8% | 59.4 ± 4.0 mg% | 45.4% | 49.7 ± 2.8 mg% | 40.5% | 54.2 ± 2.9 mg% | more effective to reduce the blood glucose level than the individual administration | markedly lowered the FFA level, and this effect could be observed at 6 hours after | Effect on serum FFA level (in words) [1]: more effective than tolbutamide in lowering the serum FFA level; Effect on blood glucose level (in words) ([2]; 12.5 and 100 mg/kg oral with 2g/kg of glucose, 3 hours): significantly lowered at 3 hours after the administration (p<0.005); Blood glucose level Before ([4]; 6.25 mg/kg oral group): 425.3 ± 10.5 mg %; Blood glucose level 4 hours ([4]; 6.25 mg/kg oral, 4 hours): 263.2 ± 26.6 mg %; Blood glucose level Before ([4]; 25 mg/kg oral group): 415.8 ± 12.2 mg %; Blood glucose level 4 hours ([4]; 25 mg/kg oral, 4 hours): 251.2 ± 21.8 mg %; inhibition at 6.25 mg/kg ([4]; Rattus norvegicus, 6.25 mg/kg oral, 4 hours): 61.9 ± 6.2%; inhibition at 25 mg/kg ([4]; Rattus norvegicus, 25 mg/kg oral, 4 hours): 59.8 ± 3.8%; Reduction % from control ([7]; 0.56 mg/kg oral): 14.9%; Blood glucose ([7]; 0.56 mg/kg oral): 77.5 ± 6.6 mg%; Reduction % from control ([7]; 1.14 mg/kg oral): 19.4%; Reduction of the blood glucose level (in words) ([7]; 1.14 mg/kg oral): significantly reduced the blood glucose level even at the dose of 1.14 mg/kg; Blood glucose ([7]; 1.14 mg/kg oral): 73.4 ± 6.4 mg%; Reduction % from control ([7]; 3.38 mg/kg oral): 20.6%; Blood glucose ([7]; 3.38 mg/kg oral): 72.3 ± 4.1 mg%
CCCCNC(=O)NS(=O)(=O)c1ccc(C)cc1 [Tolbutamide, reference compound] | 30.8 ± 15.6 μ Eq/dl | 54.1% | 52.4% | 413.9 ± 10.2 mg % | 327.8 ± 11.3 mg % | 79.4 ± 2.7% | did not have a potent hypoglycemic activity | neither tolbutamide or pnenformin exerted such effect | no suppressive effect on the serum FFA level | 3.8% | 87.6 ± 6.5 mg% | -1.4% | 92.4 ± 3.5 mg% | 19.3% | 73.5 ± 5.0 mg% | 48.0% | 47.4 ± 3.4 mg% | not more effective than the administration of tolbutamide alone | only a slight suppression | Hypoglycemic effect (in words) ([2]; alloxan diabetic rats, dose not stated): no hypoglycemic effect; Potency at low doses (in words) ([7]; low doses, oral): not potent at low doses
